Experimental data: patent publication US20240368163A1, “COMPOUNDS AND METHODS FOR MODULATING SPLICING” (REMIX THERAPEUTICS INC., priority 2021, published 2024)

Key:
Assay type in all cases: cell-based, human
HTT [1] = assay: Splicing RT-qPCR assay, HTT mRNA canonical junction (CJ) and alternative junction (AJ); conditions: Homo sapiens, gene panel, CJ qPCR, protocol of Example 142; read-out: HTT IC50 (decrease in CJ mRNA levels)
How it was run: (§1)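 Cells: A673 (DMEM/10% FBS) or K562 (IMDM/10% FBS). Dose: 11-pt 3-fold, top 10 uM final, ≤0.25% DMSO, 24 h, 37 °C. Readout: RT-qPCR of CJ/AJ exon junctions, ΔΔCt vs housekeeper and DMSO, RQ to % response.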

Target C [2] = assay: HiBiT protein abundance assay, Target C; conditions: Homo sapiens, Table 13B, modified K562 cells
How it was run: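 Cells carrying the HiBiT knock-in were plated at 10000 cells/well, dosed with compound (10-point, 3-fold, 10 μM top final) and incubated 24 hours at 37 °C. Lytic reagent was then added and luminescence read. Percent response fed a 4PL fit for IC50.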

MYB [3] = assay: Splicing RT-qPCR assay, MYB mRNA canonical junction (CJ) and alternative junction (AJ); conditions: Homo sapiens, gene panel, CJ qPCR, protocol of Example 142; read-out: MYB IC50 (decrease in CJ mRNA levels)
How it was run: as §1

HTT [4] = assay: HiBiT protein abundance assay, HTT; conditions: Homo sapiens, Table 13B, modified K562 cells
How it was run: (§2)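 Target abundance was measured as HiBiT luminescence after 24 h compound treatment of tagged K562 cells. Responses were normalized between unmodified K562 and DMSO-treated tagged cells, and IC50 taken at the 50% level of a 4PL curve.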

MYB [5] = assay: HiBiT protein abundance assay, MYB; conditions: Homo sapiens, Table 13B, modified K562 cells
How it was run: as §2

SMN2 = assay: Splicing RT-qPCR panel, SMN2 canonical junction (CJ) mRNA; conditions: Homo sapiens, gene panel, CJ qPCR, protocol of Example 142; read-out: SMN2 IC50 (decrease in CJ mRNA levels)
How it was run: as §1

Target C [6] = assay: Splicing RT-qPCR panel, Target C canonical junction (CJ) mRNA; conditions: Homo sapiens, gene panel, CJ qPCR, protocol of Example 142; read-out: Target C IC50 (decrease in CJ mRNA levels)
How it was run: as §1

SMILES | IC50 (HTT [1]) [nM] | IC50 (Target C [2]; 24 hours) [nM] | IC50 (MYB [3]) [nM] | IC50 (HTT [4]; 24 hours) [nM] | IC50 (MYB [5]; 24 hours) [nM] | IC50 (SMN2) [nM] | IC50 (Target C [6]) [nM] | IC50 (Target C [2]; K562, 24 h) [nM] | IC50 (HTT [4]; K562, 24 h) [nM] | IC50 (MYB [5]; K562, 24 h) [nM]
COc1nc(-c2ccc(N(C)[C@@H]3C[C@H]4CC[C@@H](C3)N4)nn2)ccc1-n1cccn1 [Compound 907] | 100 to 1000 | 1000 to 10000 | 1000 to 10000 | 100 to 1000 | 1000 to 10000 | 100 to 1000 | > 10000 |  |  | 
COc1nc(-c2ccc(N(C)[C@H]3CCN[C@@H](C)C3)nn2)ccc1-n1cccn1 [Compound 908] | > 10000 |  | > 10000 |  |  | 1000 to 10000 | 1000 to 10000 | > 10000 | 1000 to 10000 | 1000 to 10000
Cc1nc(-c2ccc(N(C)[C@@H]3C[C@H]4CC[C@@H](C3)N4)nn2)ccc1-c1cn[nH]c1 [Compound 912] | 1000 to 10000 |  | 1000 to 10000 |  |  | 100 to 1000 | 1000 to 10000 | 1000 to 10000 | 1000 to 10000 | 1000 to 10000
COc1nc(-c2ccc(N(C)[C@@H]3C[C@H]4CC[C@@H](C3)N4)nn2)ncc1-c1cn[nH]c1 [Compound 913] | 1000 to 10000 |  | 1000 to 10000 |  |  | 1000 to 10000 | 1000 to 10000 | 1000 to 10000 | 1000 to 10000 | 1000 to 10000
COc1cc(-c2ccc(N(C)[C@@H]3C[C@H]4CC[C@@H](C3)N4)nn2)ccc1-c1cn[nH]c1 [Compound 914] | 100 to 1000 |  | 1000 to 10000 |  |  | < 100 | 100 to 1000 | 100 to 1000 | 1000 to 10000 | 1000 to 10000
CN(c1ccc(-c2ccc(-c3cn[nH]c3)c(C(F)(F)F)n2)nn1)[C@@H]1C[C@H]2CC[C@@H](C1)N2 [Compound 916] | > 10000 |  | > 10000 |  |  | > 10000 | > 10000 | > 10000 | > 10000 | > 10000
COc1cc(-c2ccc(N(C)[C@@H]3C[C@H]4CC[C@@H](C3)N4)nn2)ncc1-c1cn[nH]c1 [Compound 921] | > 10000 |  | > 10000 |  |  | 1000 to 10000 | > 10000 | > 10000 | > 10000 | 1000 to 10000
CN(c1ccc(-c2ccc(-c3cn[nH]c3)c(Cl)n2)nn1)[C@@H]1C[C@H]2CC[C@@H](C1)N2 [Compound 923] | < 100 |  | 100 to 1000 |  |  | < 100 | 100 to 1000 | < 100 | < 100 | 100 to 1000
COc1nc(-c2ccc(NC3CCNCC3)nn2)ccc1-c1cn[nH]c1 [Compound 924] | 1000 to 10000 |  | > 10000 |  |  | 100 to 1000 | > 10000 | > 10000 | > 10000 | 1000 to 10000
COc1nc(-c2ccc(NC3CCNCC3)nn2)ccc1-c1cnn(C)c1 [Compound 925] | 1000 to 10000 |  | 1000 to 10000 |  |  | 100 to 1000 | > 10000 | 1000 to 10000 | 1000 to 10000 | 1000 to 10000
COc1nc(-c2ccc(OC3CC(C)(C)NC(C)(C)C3)nn2)ccc1-c1cnn(C)n1 [Compound 926] | 100 to 1000 |  | 1000 to 10000 |  |  | 100 to 1000 | 1000 to 10000 | 100 to 1000 | 100 to 1000 | 1000 to 10000
COc1nc(-c2ccc(N(C)C3CC(C)(C)NC(C)(C)C3)nn2)ccc1-c1cnn(C)n1 [Compound 927] | 100 to 1000 |  | 1000 to 10000 |  |  | 100 to 1000 | 1000 to 10000 | 100 to 1000 | 100 to 1000 | 100 to 1000
COc1nc(-c2ccc(N(C)[C@@H]3C[C@H]4CC[C@@H](C3)N4)nn2)cnc1-c1cn[nH]c1 [Compound 928] | 100 to 1000 |  | 100 to 1000 |  |  | < 100 | 100 to 1000 | 100 to 1000 | 100 to 1000 | 100 to 1000
CCOc1nc(-c2ccc(N(C)[C@@H]3C[C@H]4CC[C@@H](C3)N4)nn2)ccc1-c1cn[nH]c1 [Compound 929] | < 100 |  | < 100 |  |  | < 100 | < 100 | < 100 | < 100 | < 100
COc1nc(-c2ccc(N(C)C3C[C@H]4CC[C@@H](C3)N4)nn2)ccc1-c1cnn(C)n1 (stereo partly drawn) [Compound 932] | 100 to 1000 |  | 100 to 1000 |  |  | 100 to 1000 | 100 to 1000 | 100 to 1000 | 100 to 1000 | 100 to 1000
